Source: patent US3998790A, “Phenoxy-hydroxypropylamines, their preparation, and method and pharmaceutical preparations for treating cardiovascular diseases” (priority 1974, dated 1976)
Read-outs that look alike come from different tables or passages of the source.

Columns and labels:
heart rate = assay: intrinsic stimulating activity on heart rate in reserpinized cats; type: in vivo, cat; conditions: Felis catus, read-out: Intrinsic activity % of maximal isoprenaline heart rate
Method: (§1) Compounds prepared according to the examples were evaluated for intrinsic activity and blocking effect on heart rate and: peripheral vasodilator response to isoprenaline in the cat. The acute LD50 in mice was evaluated.
(§2) Cats weighing between 1.8 and 2.8 kg were anaesthetized with 30 mg/kg pentobarbital sodium, intraperitoneally. The cats had been pretreated with reserpine, 5 mg/kg intramuscular, about 18 hours before the experiment. Bilateral vagotomy was performed before the start of the experiment.
The heart rate was recorded on an Offner cardiotachometer triggered by the EKG-complex. Mean arterial blood pressure was recorded from a carotid artery. The peripheral resistance was measured in one of the legs of the cat in the following way: The femoral artery was opened in the inguinal region and the leg was perfused by blood delivered through a sigma motor pump at constant rate. The flow resistance (the pressure) was recorded via a pressure transudcer connected to the catheter distally to the pump. […] An isoprenaline dose giving 70-80% of the maximal chronotropic response was determined. […] Ten minutes before each isoprenaline injection, the tested substances were administered intravenously for two minutes, starting with a dose of 0.01 mg/kg and increasing each subsequent dose fourfold. The intrinsic effects of the test substances were determined. The dose producing 50% blockade of the isoprenaline responses was evaluated from the plotted log dose-percent blockade diagrams.

β-receptors of the heart = target: T1, β-receptors of the heart (Felis catus, UniProt Q9TST6); assay: β-blocking activity on heart rate (isoprenaline response) in reserpinized cats; type: in vivo, cat; conditions: read-out: β-blockade Heart rate ED50
T1 construct: Intravenously injected isoprenaline increased the heart rate and reduced the perfusion pressure; from tissue; host or cells: heart of the intact anaesthetized, reserpinized, vagotomized cat (in vivo)
Method: (§3) The acute LD50 in mice was evaluated. Alprenolol was used as a reference substance.
as §2
(§4) The heart rate was recorded on an Offner cardiotachometer triggered by the EKG-complex. Mean arterial blood pressure was recorded from a carotid artery. The peripheral resistance was measured in one of the legs of the cat in the following way: The femoral artery was opened in the inguinal region and the leg was perfused by blood delivered through a sigma motor pump at constant rate. The flow resistance (the pressure) was recorded via a pressure transudcer connected to the catheter distally to the pump. The paw was excluded from the circulation by a tight ligature Intravenously injected isoprenaline increased the heart rate and reduced the perfusion pressure. An isoprenaline dose giving 70-80% of the maximal chronotropic response was determined. This dose (usually 0.1 μg/kg) was then repeated with 20 minute intervals. Ten minutes before each isoprenaline injection, the tested substances were administered intravenously for two minutes, starting with a dose of 0.01 mg/kg and increasing each subsequent dose fourfold. The intrinsic effects of the test substances were determined. The dose producing 50% blockade of the isoprenaline responses was evaluated from the plotted log dose-percent blockade diagrams.

[1] = target: T2, peripheral vascular β-receptors (Felis catus, UniProt Q9TST5); assay: β-blocking activity on peripheral vascular resistance (vasodilator response to isoprenaline) in reserpinized cats; type: in vivo, cat; conditions: read-out: β-blockade peripheral vascular resistance ED50
T2 construct: from tissue; host or cells: vascular bed of the perfused leg of the anaesthetized, reserpinized cat, paw excluded (in vivo)
Method: as §3, §2, §4

in vivo = conditions: mouse, ip
Method: as §1

[2] = reserpinized cat, intravenous, dose producing 50% blockade of isoprenaline response
[3] = reserpinized cat, pentobarbital anaesthesia, intravenous

T1 sequence (Q9TST6 whole entry, the tested form may be a part): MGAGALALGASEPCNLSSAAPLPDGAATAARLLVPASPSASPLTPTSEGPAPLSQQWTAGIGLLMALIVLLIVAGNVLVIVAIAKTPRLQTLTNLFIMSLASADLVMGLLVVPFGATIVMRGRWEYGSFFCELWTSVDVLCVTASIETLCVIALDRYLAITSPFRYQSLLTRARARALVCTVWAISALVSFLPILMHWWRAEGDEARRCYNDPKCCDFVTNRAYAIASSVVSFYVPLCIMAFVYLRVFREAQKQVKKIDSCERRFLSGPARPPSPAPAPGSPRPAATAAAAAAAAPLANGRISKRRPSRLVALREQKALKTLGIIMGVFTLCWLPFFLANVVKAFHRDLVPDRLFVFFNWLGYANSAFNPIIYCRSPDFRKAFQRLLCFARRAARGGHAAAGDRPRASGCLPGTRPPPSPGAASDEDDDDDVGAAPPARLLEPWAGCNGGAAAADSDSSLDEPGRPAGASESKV
T2 sequence (Q9TST5 whole entry, the tested form may be a part): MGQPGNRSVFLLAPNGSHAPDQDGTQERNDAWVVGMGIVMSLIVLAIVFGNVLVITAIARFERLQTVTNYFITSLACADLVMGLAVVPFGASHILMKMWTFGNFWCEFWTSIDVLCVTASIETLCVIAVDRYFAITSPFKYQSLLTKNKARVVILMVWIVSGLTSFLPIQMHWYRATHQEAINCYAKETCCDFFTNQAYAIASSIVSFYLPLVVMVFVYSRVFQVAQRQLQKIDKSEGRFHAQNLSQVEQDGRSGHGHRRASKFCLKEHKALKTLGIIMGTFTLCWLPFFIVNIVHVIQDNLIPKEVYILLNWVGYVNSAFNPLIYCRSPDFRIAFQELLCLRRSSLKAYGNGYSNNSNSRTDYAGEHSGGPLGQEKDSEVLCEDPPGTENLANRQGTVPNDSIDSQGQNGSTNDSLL

| SMILES | Emax (heart rate; iv) [%] | ED50 (β-receptors of the heart; [2]) [mg/kg] | ED50 [1, 2] [mg/kg] | LD50 (in vivo) [mg/kg] | Emax (heart rate; [3]) [%] | ED50 (β-receptors of the heart; cat, iv) [mg/kg] | ED50 ([1]; cat, iv) [mg/kg] |
| --- | --- | --- | --- | --- | --- | --- | --- |
| COC(=O)NCCc1ccc(OCC(O)CNC(C)C)cc1 (centres unmarked) [(no label)] | 0 | 0.4 | 19 | 125 | – | – | – |
| CCOCCc1ccc(OCC(O)CNC(C)C)cc1 (stereo not drawn) [Ex. II, 1-isopropylamino-3-[p-(β-ethoxyethyl)-phenoxy]-propanol-2] | – | 0.3 | 4 | 150 | 0 | – | – |
| C=CCc1ccccc1OCC(O)CNC(C)C (centres unmarked) [alprenolol, reference compound] | – | – | – | – | 20 | 0.1 | 0.05 |
| CCOCc1ccc(OCC(O)CNC(C)C)cc1 (centres unmarked) [Ex. III, 1-isopropylamino-3-(p-ethoxymethyl-phenoxy)-propanol-2] | – | 0.4 | 6 | 175 | 0 | – | – |
| COCCc1ccc(OCC(O)CNC(C)C)cc1 (stereo not drawn) [Ex. I, 1-isopropylamino-3-[p-(β-methoxyethyl)-phenoxy]-propanol-2] | – | – | – | 200 | 0 | 0.4 | 3 |
| CCOC(=O)NCCc1ccc(OCC(O)CNC(C)C)cc1 (centres unmarked) | 0 | 0.3 | 25 | 200 | – | – | – |
